In the NIST ThermoML archive (doi:10.1016/j.jct.2016.05.023):
± gives the expanded uncertainty stated by the source.

Conditions: for Normal melting temperature: Crystal, DTA; for Glass transition temperature: DSC

| Structure (SMILES) | Normal melting temperature | Glass transition temperature |
| --- | --- | --- |
| CC(=O)[O-].CCCCCCCCCCCCCC[P+](CCCCCC)(CCCCCC)CCCCCC [trihexyl(tetradecyl)phosphonium acetate] | -67 ± 2 °C |  |
| CCCCCCn1cc[n+](C)c1.[Cl-] [1-hexyl-3-methylimidazolium chloride] |  | -65 ± 2 °C |
| CC(=O)[O-].CCCCn1cc[n+](C)c1 [1-butyl-3-methylimidazolium acetate] |  | -63 ± 2 °C |
| CCCCCCCCCCCCCC[P+](CCCCCC)(CCCCCC)CCCCCC.[Cl-] [trihexyl(tetradecyl)phosphonium chloride] | -66 ± 2 °C |  |
| CCn1cc[n+](C)c1.[Cl-] [1-ethyl-3-methylimidazolium chloride] | 84 ± 2 °C |  |
| CCCCn1cc[n+](C)c1.[Cl-] [1-butyl-3-methylimidazolium chloride] |  | -52 ± 2 °C |
| CC(=O)[O-].CCn1cc[n+](C)c1 [1-ethyl-3-methylimidazolium acetate] |  | -71 ± 2 °C |
| CCCCCCCC[n+]1ccn(C)c1.[Cl-] [1-methyl-3-octylimidazolium chloride] |  | -74 ± 2 °C |
